According to patent publication US20220081446A1, “CRYSTAL FORM OF 1,2,3-TRIAZOLO[1,5-A]PYRAZINES DERIVATIVE AND PREPARATION METHOD FOR CRYSTAL FORM” (Jiangsu Hengrui Medicine Co., Ltd., priority 2019, published 2022):

Tests used:
[1] = DVS (dynamic vapor sorption) hygroscopicity test; type: physicochemical
Description: According to the definition of hygroscopicity characteristics and hygroscopic weight gain in “9103 guiding principles for hygroscopicity of drugs” in the fourth volume of Chinese Pharmacopoeia (2015 Edition),
DVS indicates dynamic vapor sorption: the determination is carried out by SMS DVS Advantage at 25° C. with a humidity change of 50%-95%-0%-95%-50%, and the step of 10% (the last step is 5%) (The specific range of humidity is subject to the corresponding spectrum, and the methods listed here are those used in most cases), and the judgment standard is that dm/dt is not more than 0.02%.

[2] = Long term/accelerated stability; type: physicochemical
Description: The crystal form A (Example 5) was placed at 25° C., 60% RH and 40° C., 75% RH to investigate its stability

[3] = Investigation of influencing factors (stability under heating, illumination, high humidity); type: physicochemical
Description: The sample of the crystal form A (Example 5) was spread out, and its stability was investigated under the conditions of heating (40° C., 60° C.), illumination (4500 Lux) and high humidity (RH 75%, RH 90%). The sampling was investigated over 30 days.

HBV capsid protein = HBV capsid protein (Hepatitis B virus genotype D subtype ayw, UniProt P03146); conditions: from PCT/CN2018/097170; cited from earlier work
Sequence of HBV capsid protein (P03146 whole entry): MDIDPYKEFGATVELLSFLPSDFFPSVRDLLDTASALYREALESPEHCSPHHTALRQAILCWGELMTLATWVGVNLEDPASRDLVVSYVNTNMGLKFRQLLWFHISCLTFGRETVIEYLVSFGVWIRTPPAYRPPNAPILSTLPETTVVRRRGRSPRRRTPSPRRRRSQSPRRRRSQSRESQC

[4] = test system: HBV DNA replication in HepG2.2.15 cells; assay: In vitro anti-HBV activity test (quantitative analysis of intracellular HBV DNA); type: cell-based; conditions: HBV DNA by quantitative PCR
Text: Test Example 1: In Vitro Anti-HBV Activity Test (Quantitative Analysis of Intracellular HBV DNA)
HepG2.2.15 cells were stable expression cell lines integrated with HBV genome, which can be secreted out of cells through replication, transcription, translation and packaging into virus particles with HBV DNA. In this study, the quantitative PCR method was used to quantitatively analyze the HBV DNA produced by the proliferation of HepG2.2.15 in vitro, thus determining the activity of the compounds in the present disclosure to inhibit HBV DNA replication through inhibiting the assembly of HBV capsid protein.
HepG2.2.15 cells were cultured in DMEM/high glucose medium (10% FBS, 400 μg/ml G418) and passaged every 3 days. On the day of experiment, fresh cell culture medium was used to prepare cell suspension, which was cultured with 40,000 cells/well in 96 well plate (Corning, #3599) under 5% carbon dioxide at 37° C. […] The extracted DNA was analyzed by HBV DNA quantitative PCR using Hepatitis B virus nucleic acid quantitative detection kit from Tepp biology, with the method specifically mentioned in the instructions of the kit. The quantitative standard curve was determined in parallel experiment using the own standard sample of the kit. Each sample was converted quantitatively based on the standard curve. […]

HepG2 cells [5] = conditions: from PCT/CN2018/097170; cited from earlier work
HepG2 cells [6] = conditions: read-out: CC50 (proliferation inhibition), 72 hours, CellTiter-Glo
Description: HepG2 cells taken in logarithmic growth stage were prepared into the cell suspension through digestion with trypsin, and then the suspension was cultured with 6,000 cells/well in 96-well plate (96-well White/Clear Flat Bottom plate) under 5% carbon dioxide at 37° C. for 16-20 hours. On the second day, the compound was dissolved in pure DMSO with the concentration of 20 mM, and then the gradient dilution of the compound was carried out by using Automatic pipetting workstation (Bravo) with the dilution times of 3, where there were 8 concentration points for each compound, and the control well was DMSO; next, the compound with each concentration treated by DMSO was diluted 200 times using EMEM (containing 10% FBS) medium. The cell culture plate inoculated on the first day was taken out, and then the medium in the well plate was sucked out by using the negative pressure suction device. Into each well, the prepared medium containing each concentration of compound was added respectively, which was cultured with 100 μl/well at 37° C. for 72 hours. On the fifth day, the 96-well cell plate was taken out, and the freshly prepared CellTiter Glo was added into each well with 100 μL/well, left to stand for 5-10 minutes, sealed for the bottom of the 96-well plate with a white back cover film (PerkinElmer), placed into the Microplate Reader, and measured for the Luminescence signal by the reader.

[7] = from PCT/CN2018/097170; cited from earlier work

With `C[C@H]1Cn2nnc(C(=O)N[C@H](C)C(F)(F)F)c2CN1C(=O)Nc1ccc(F)c(F)c1` [Crystal form A, (S)-N^5-(3,4-difluorophenyl)-6-methyl-N^3-((R)-1,1,1-trifluoropropan-2-yl)-6,7-dihydro-[1,2,3]triazolo[1,5-a]pyrazine-3,5(4H)-dicarbonamide] the hygroscopicity class ([1]; 70% RH) was “no or little hygroscopicity”, the hygroscopicity class ([1]; 90% RH) was “slight hygroscopicity, or no/little hygroscopicity” and the “crystal form after DVS detection (XRPD)” value ([1]; before vs after DVS) was “remained unchanged”. For the same compound, the desorption process ([1]; humidity change from 0% to 95% RH) was “consistent with the adsorption process”, the hygroscopic weight gain ([1]; normal storage condition, 25° C. and 60% RH) was “about 0.07%” and the Purity % ([2]; 25° C., 60% RH, 1 month) was 98.3%. It also gave a Purity % ([2]; 25° C., 60% RH, 2 months) of 98.3%, a Purity % ([2]; 25° C., 60% RH, 3 months) of 98.3% and a Purity % ([2]; 25° C., 60% RH, 6 months) of 98.3%. The Purity % ([2]; 25° C., 60% RH, start) was 98.3%, the Purity % ([2]; 40° C., 75% RH, 1 month) was 98.3% and the Purity % ([2]; 40° C., 75% RH, 2 months) was 98.3%. The Purity % ([2]; 40° C., 75% RH, 3 months) was 98.3%, the Purity % ([2]; 40° C., 75% RH, 6 months) was 98.2% and the Purity % ([2]; 40° C., 75% RH, start) was 98.3%. The “physical and chemical stability” value ([2]; stored for 6 months, long-term (25° C., 60% RH) and acceleration (40° C., 75% RH)) was “excellent physical and chemical stability”, the Color and character ([3]; 4500 Lux, day 5) was “white solid” and the Purity % ([3]; 4500 Lux, day 5) was 98.27%. The Color and character ([3]; 4500 Lux, day 10) was “white solid”, the Purity % ([3]; 4500 Lux, day 10) was 98.27% and the Color and character ([3]; 4500 Lux, day 30) was “white solid”. For the same compound, the Crystal form ([3]; 4500 Lux, day 30) was “No changed”, the Purity % ([3]; 4500 Lux, day 30) was 98.30% and the Color and character ([3]; RH 75%, day 5) was “white solid”. For the same compound, the Purity % ([3]; RH 75%, day 5) was 98.26%, the Weight gain % ([3]; RH 75%, day 5) was 2.28% and the Color and character ([3]; RH 75%, day 10) was “white solid”. The Purity % ([3]; RH 75%, day 10) was 98.29%, the Weight gain % ([3]; RH 75%, day 10) was 2.72% and the Color and character ([3]; RH 75%, day 30) was “white solid”. For the same compound, the Crystal form ([3]; RH 75%, day 30) was “No changed”, the Purity % ([3]; RH 75%, day 30) was 98.29% and the Weight gain % ([3]; RH 75%, day 30) was 6.68%. The Color and character ([3]; RH 90%, day 5) was “white solid”, the Purity % ([3]; RH 90%, day 5) was 98.26% and the Weight gain % ([3]; RH 90%, day 5) was 2.93%. For the same compound, the Color and character ([3]; RH 90%, day 10) was “white solid”, the Purity % ([3]; RH 90%, day 10) was 98.28% and the Weight gain % ([3]; RH 90%, day 10) was 3.19%. The Color and character ([3]; RH 90%, day 30) was “white solid”, the Crystal form ([3]; RH 90%, day 30) was “No changed” and the Purity % ([3]; RH 90%, day 30) was 98.30%. The Weight gain % ([3]; RH 90%, day 30) was 10.70%, the Color and character ([3]; heating 40° C., day 5) was “white solid” and the Purity % ([3]; heating 40° C., day 5) was 98.28%. For the same compound, the Color and character ([3]; heating 40° C., day 10) was “white solid”, the Purity % ([3]; heating 40° C., day 10) was 98.31% and the Color and character ([3]; heating 40° C., day 30) was “white solid”. For the same compound, the Crystal form ([3]; heating 40° C., day 30) was “No changed”, the Purity % ([3]; heating 40° C., day 30) was 98.32% and the Color and character ([3]; heating 60° C., day 5) was “white solid”. For the same compound, the Purity % ([3]; heating 60° C., day 5) was 98.26%, the Color and character ([3]; heating 60° C., day 10) was “white solid” and the Purity % ([3]; heating 60° C., day 10) was 98.27%. For the same compound, the Color and character ([3]; heating 60° C., day 30) was “white solid”, the Crystal form ([3]; heating 60° C., day 30) was “No changed” and the Purity % ([3]; heating 60° C., day 30) was 98.30%. For the same compound, the “physical and chemical stability” value ([3]; illumination, 40° C., 60° C., high humidity 75% and 90%, storing for 30 days) was “good physical and chemical stability”, the Color and character ([3]; start, day 0) was “white solid” and the Purity % ([3]; start, day 0) was 98.30%.
In the case of `C[C@H]1Cn2nnc(C(=O)N[C@H](C)C(F)(F)F)c2CN1C(=O)Nc1ccc(F)c(F)c1` [Compound B, (S)-N^5-(3,4-difluorophenyl)-6-methyl-N^3-((R)-1,1,1-trifluoropropan-2-yl)-6,7-dihydro-[1,2,3]triazolo[1,5-a]pyrazine-3,5(4H)-dicarbonamide], the “inhibitory effect on the normal assembly of HBV capsid protein” value (HBV capsid protein) is listed as “obvious inhibitory effect”, the “Emax (maximum inhibitory effect on HBV DNA replication)” value [4] is listed as 100% and the EC50 ([4]; read-out: EC50 (inhibition of HBV DNA replication)) is listed as 19 nM. The “effect on the proliferation inhibition of HepG2 cells in vitro” value (HepG2 cells [5]) was “no or little effect”, the CC50 (HepG2 cells [6]) was over 100000 nM and the bioavailability [7] was “high”. The pharmacokinetic absorption [7] was “good”.
